# Values quoted from earlier work as cited in patent publication US6645994B1, “Method of treating dry eye disorders” (Alcon, Inc., priority 2001, dated 2003).
# Tests used:
# acyl-CoA synthetase = settings: compared with triacsins A, B and C
# [1] = system: soluble goblet cell mucins (MUC2, MUC5AC); settings: literature report, Cornea 2000
# mucin subtype MUC1 = settings: literature report, Cornea 2000
Structure (SMILES),relative potency as acyl-CoA synthetase inhibitor among triacsins (acyl-CoA synthetase),"secretion of soluble goblet cell mucins (MUC2, MUC5AC) [1]",secretion of mucin subtype MUC1 (mucin subtype MUC1)
"CC/C=C/C=C/C=C/C=C/C=NN=NO [Triacsin C, 1-hydroxy-3-(E,E,E,E-2′4′6′8′-undecatetraenylidine) triazene]",most potent of these compounds,,
CCCCC[C@H](O)/C=C/C=C\C/C=C\C/C=C\CCCC(=O)O [15(S)-HETE],,inability of 15(S)-HETE to stimulate secretion,effective secretagogue
